As a reminder, the IC50 is the concentration at which inhibition is half-maximal. Broadly, the IC90 is the concentration at which the effect reaches the 90% level.

Drawing on PubChem BioAssay AID434987 (Southern Research Specialized Biocontainment Screening …, 2010), this text covers IC50 and IC90 for 22 molecules.

Active and inactive are the calls of the source. No rule for the calls is given here.

The assay has as its system M. tuberculosis H37Rv growth inhibition with meropenem. The assay is described as follows: dose response, H37Rv, with and without meropenem (AID 434987).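 Also: growth over 7 days at 37 °C before Alamar Blue read on day 9.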
The mark [1] stands for this setting: M. tuberculosis H37Rv growth inhibition, measured here: IC50 without meropenem.
Where [2] appears, read: M. tuberculosis H37Rv growth inhibition, measured here: IC90 without meropenem.
The mark [3] stands for this setting: measured here: IC90 with meropenem.

With `CCOC(=O)c1ccc(N2CN(CCc3ccccc3)CNC2=S)cc1`, the IC50 is 26.9 µM. Under setting [1], this molecule gave an IC50 of 91.5 µM. Moreover, the IC90 under setting [2] was > 100 µM. For the same molecule, the IC90 under setting [3] is > 100 µM.

For the molecule `COc1ccc([C@H]2CC(=O)C=C(/C=C/c3ccccc3)C2)cc1OC`, the IC50 is > 100 µM (inactive). Besides, the 50% inhibitory concentration (IC50) under setting [1] was > 100 µM. In addition, under setting [2], the IC90 was > 100 µM. In addition, the IC90 under setting [3] is > 100 µM.

`Cc1cc(C)c(NC(=O)CC(C)(C)C)c(Cl)c1`: the IC50 was 76.4 µM (inactive). Further, the IC50 under setting [1] is > 100 µM. In addition, under setting [2], the concentration for an effect of 90% (IC90) was > 100 µM. Also, under setting [3], the IC90 is > 100 µM.

With `Cc1ccc(C)c(SCC(=O)OCC(=O)N2CC(C)OC(C)C2)c1` (stereo not drawn), the half-inhibitory concentration (IC50) is 25.5 µM. Also, the IC50 under setting [1] was > 100 µM. In addition, the IC90 under setting [2] is > 100 µM. Further, the IC90 under setting [3] was > 100 µM.

As to `COc1ccc(/C(O)=C/C(=O)C(=O)NNC(=O)C(O)(c2ccccc2)c2ccccc2)cc1`, the IC50 is > 100 µM (inactive). Further, the IC50 under setting [1] is > 100 µM. Also, the IC90 under setting [2] is > 100 µM. In addition, the IC90 under setting [3] is > 100 µM.

With `CSc1ncc(Cl)c(C(=O)Nc2cccc3ccccc23)n1`, the IC50 is 8.49 µM. In addition, the IC50 under setting [1] is 43.5 µM. The concentration for an effect of 90% (IC90) under setting [2] was > 100 µM. In addition, the IC90 under setting [3] was > 100 µM.

Regarding `CC1(C)C2CC=C(/C=N/NC(=O)c3ccccc3O)C1C2` (stereo not drawn), the IC50 was 65.7 µM (inactive). Moreover, the IC50 under setting [1] is > 100 µM. Further, the IC90 under setting [2] was > 100 µM. The concentration for an effect of 90% (IC90) under setting [3] was > 100 µM.

Take `Cc1cc(NC(=O)CSc2ncnc3c2cnn3-c2ccccc2)no1`: the IC50 is > 100 µM (inactive). In addition, under setting [1], the IC50 was > 100 µM. Moreover, the IC90 under setting [2] is > 100 µM. Besides, the IC90 under setting [3] was > 100 µM.

Turning to `COc1cc(/C=C/c2ccc3cccc([N+](=O)[O-])c3n2)ccc1OCC(=O)O`, the IC50 was 6.21 µM. Further, the IC50 under setting [1] was 24.9 µM. This molecule came in with an IC90 under setting [2] of 62.5 µM. Under setting [3], this molecule had a concentration for an effect of 90% (IC90) of 12 µM.

Turning to `O=C1OC(/C=C/c2ccccc2)=NC/1=C/c1ccco1`, the IC50 is 0.691 µM. The molecule also came in with an IC50 under setting [1] of 3.11 µM. The same molecule yielded an IC90 under setting [2] of 13 µM. Under setting [3], the IC90 was 13.9 µM.

Consider `O=C1COc2ccc(C(=O)/C=C/c3ccccc3)cc2N1`, for which the half-maximal inhibitory concentration (IC50) was 9.75 µM. Moreover, the IC50 under setting [1] was determined as 25.6 µM. The IC90 under setting [2] is > 50 µM. Also, the 90% effect concentration (IC90) under setting [3] is 12.2 µM.

As for `NS(=O)(=O)c1ccc(Sc2nc3ccccc3s2)c([N+](=O)[O-])c1`, the IC50 was > 100 µM (inactive). In addition, the IC50 under setting [1] is > 100 µM. Besides, the IC90 under setting [2] is > 100 µM. Further, under setting [3], the concentration for an effect of 90% (IC90) was > 100 µM.

Turning to `COCCCNCCOCCOc1ccc(C)cc1Br`, the IC50 is > 100 µM (inactive). Besides, the IC50 under setting [1] was > 100 µM. Besides, the IC90 under setting [2] is > 100 µM. For the same molecule, under setting [3], the IC90 was > 100 µM.

For `C/C(=N\NC(=S)NCc1ccccc1)c1cccc(Br)c1`, the IC50 is > 100 µM (inactive). The IC50 under setting [1] is > 100 µM. Under setting [2], the IC90 is > 100 µM. Moreover, the IC90 under setting [3] was > 100 µM.

As to `C/C(=N\NC(=O)c1csc2ccccc12)c1ccc(O)cc1`, the IC50 was > 100 µM (inactive). In addition, the IC50 under setting [1] was > 100 µM. Also, the IC90 under setting [2] was > 100 µM. Moreover, the IC90 under setting [3] was > 100 µM.

As for `CC(=O)c1ccc(OC(=O)N(c2ccccc2)c2ccccc2)cc1`, the IC50 is 4.13 µM. Under setting [1], this molecule registered an IC50 of 29.6 µM. Further, under setting [2], the IC90 was > 100 µM. Further, the IC90 under setting [3] is 32.9 µM.

For the molecule `Cc1cccnc1NC(=S)NC(=O)c1cncc(Br)c1`, the IC50 is 4.68 µM. The molecule also gave a 50% inhibitory concentration (IC50) under setting [1] of 40.3 µM. For the same molecule, the IC90 under setting [2] is > 100 µM. In addition, the 90% effect concentration (IC90) under setting [3] was > 100 µM.

Turning to `COCCCn1c(=O)/c(=C\c2ccccc2OC(C)C)s/c1=C(/C#N)C(=O)Nc1ccc(C(=O)O)cc1`, the IC50 is 5.19 µM. Under setting [1], this molecule yielded an IC50 of 13.6 µM. Besides, the IC90 under setting [2] is > 100 µM. Also, the 90% effect concentration (IC90) under setting [3] stood at 18.5 µM.

For the molecule `CCOC(=O)c1nn(-c2ccccc2)c(C#N)c1NC(=O)c1nn(CC)cc1Br`, the IC50 was > 100 µM (inactive). Also, the IC50 under setting [1] was > 100 µM. In addition, the IC90 under setting [2] is > 100 µM. Also, the IC90 under setting [3] is > 100 µM.

For the molecule `Cn1cccc1/C=C1/C(=O)NC(=O)N(Cc2ccc(F)cc2)C1=O`, the IC50 is 23.7 µM (inactive). The molecule further showed an IC50 under setting [1] of 46.2 µM. The IC90 under setting [2] is > 50 µM. Also, the IC90 under setting [3] is > 50 µM.

Consider `O=c1[nH]c(/C=C/c2cccc(Br)c2)nc2ccccc12`, for which the IC50 was > 100 µM (inactive). Further, under setting [1], the IC50 is > 100 µM. The IC90 under setting [2] was > 100 µM. Besides, the IC90 under setting [3] was > 100 µM.

Turning to `COc1cc2c(C(=O)N3CCN(c4ccccc4C)CC3)c(C)oc2cc1Br`, the IC50 was > 100 µM (inactive). Moreover, under setting [1], the IC50 was > 100 µM. Under setting [2], the IC90 is > 100 µM. Besides, the IC90 under setting [3] was > 100 µM.
